Assay results taken from publication PMC8286823, “Identifying SARS-CoV-2 antiviral compounds by screening for small molecule inhibitors of nsp15 endoribonuclease” (Biochemical Journal, 2021).
“And” between values parts separate entries of the source, which are not always exact repeats. Identical values can stand only once. Counter-ions that a name gives are not always drawn.

What was measured:
[1] = molecular target: T1, SARS-CoV-2 nsp15 endoribonuclease (Severe acute respiratory syndrome coronavirus 2, UniProt P0DTD1); assay type: biochemical; conditions: 100 µM compound, 500 nM nsp15, 1 µM 16 nt U substrate; for mean cleavage (%): 20 min at 30°C, n=3
[2] = molecular target: T1, SARS-CoV-2 nsp15 endoribonuclease; assay: biochemical; assay type: biochemical
[3] = molecular target: T1, SARS-CoV-2 nsp15 endoribonuclease
VERO E6 cells = assay: Cell survival (cell area, DRAQ5) in SARS-CoV-2 infectivity assay; assay type: cell-based, Chlorocebus sabaeus; conditions: infected VERO E6 cells, 22 h
Description: (§1) We infected VERO E6 cells with SARS-CoV-2 in the presence of a range of concentrations of NSC95397 and quantified viral infected area (Figure 5A,B). NSC95397 sacrificed VERO E6 cells at concentrations above 10 μM, consistent with previous reports that NSC95397 is an inhibitor of the Cdc25 protein phosphatase and multiple protein kinases [[39–42]]. This made it more difficult to assess viral growth. With the aim of finding a concentration of NSC95397 that inhibited viral growth without killing the cells, we performed a second titration at lower NSC95397 concentrations (Figure 5C,D).
(§2) Figure 5. […] (A) SARS-CoV-2 infectivity assays in the presence of NSC95397. DNA in cells was stained with DRAQ5, and virus was immunostained with anti-N antibody. (B) Quantification of normalised viral area (black) and cell area (gray) ±SD. […] (D) Quantification of C as in B. (E) SARS-CoV-2 infectivity assays as in C in the presence of 0.5 µM remdesivir. (F) Quantification of E as in B, note that black control line is quantification of control experiment in C.
(§3) Infectivity assays were performed as in the accompanying manuscript (see Zeng et al.). […] The whole well area was delineated, and area of Alexa488/N protein and DRAQ5/DNA signals were determined for each well. […]

SARS-CoV-2 = SARS-CoV-2 infectivity assay in VERO E6 cells (viral area, anti-N staining); assay type: cell-based
Description: as §1, §2, §3

[4] = molecular target: T2, Pierce Universal Nuclease (benzonase) (Serratia marcescens, UniProt P13717); assay: Gel-based nuclease specificity assay with 16 nt U substrate, benzonase; assay type: biochemical; conditions: 0, 11, 33 or 100 µM; 25 mU/µl Pierce Universal Nuclease, 1 µM 16 nt U substrate
T2 construct: purchased Pierce
T2 sequence (P13717 22-266): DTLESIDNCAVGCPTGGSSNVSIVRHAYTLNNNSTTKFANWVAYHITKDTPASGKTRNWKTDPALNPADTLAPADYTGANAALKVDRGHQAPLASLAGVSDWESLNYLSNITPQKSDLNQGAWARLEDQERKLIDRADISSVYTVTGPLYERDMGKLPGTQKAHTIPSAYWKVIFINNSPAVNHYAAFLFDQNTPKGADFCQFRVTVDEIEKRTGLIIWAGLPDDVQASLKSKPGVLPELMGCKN

RNase A = RNase A (Bos taurus, UniProt P61823); assay: Gel-based nuclease specificity assay with 16 nt U substrate, RNase A; assay type: biochemical; conditions: 0, 11, 33 or 100 µM; 1 pg/µl RNase A, 1 µM 16 nt U substrate
RNase A, sequence (P61823 27-150): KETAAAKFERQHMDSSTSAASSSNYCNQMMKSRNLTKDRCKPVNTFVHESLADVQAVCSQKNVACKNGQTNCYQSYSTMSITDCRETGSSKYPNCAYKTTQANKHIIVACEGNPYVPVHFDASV

## O=C1c2cc([N+](=O)[O-])ccc2-n2c1nc1ccccc1c2=O [GNF-PF-3777]
[1]
  effect on nsp15 endoribonuclease activity in gel-based assay: had no effect even at 100 µM
  mean cleavage (%): 60%

## Cc1c(COc2cc(OCc3cccc(C#N)c3)c(CN3C[C@H](O)C[C@@H]3C(=O)O)cc2Cl)cccc1-c1ccc2c(c1)OCCO2 [BMS-1166]
[1]
  effect on nsp15 endoribonuclease activity in gel-based assay: did not inhibit the enzyme even at 100 µM
  mean cleavage (%): 58%
[2]
  inhibition of nsp15 endoribonuclease activity in plate reader: able to inhibit nsp15 endoribonuclease activity

## CN1C[C@H](C(=O)N[C@]2(C)O[C@@]3(O)[C@@H]4CCCN4C(=O)[C@H](Cc4ccccc4)N3C2=O)C[C@@H]2c3cccc4[nH]cc(c34)C[C@H]21 [Dihydroergotamine mesylate]
[3]
  activity: 95% and 98%

## CC(C)(C)c1nc2c3cc[nH]c(=O)c3c3cc(F)ccc3c2[nH]1 [JAK Inhibitor I]
[1]
  mean cleavage (%): 65%

## CO[C@@H]1[C@@H](OC(N)=O)[C@@H](O)[C@H](Oc2ccc3c(O)c(NC(=O)c4ccc(O)c(CC=C(C)C)c4)c(=O)oc3c2C)OC1(C)C [Novobiocin]
[3]
  activity: 98% and 95%

## COc1cc(/C=C/C(=O)CC(=O)/C=C/c2ccc(O)c(OC)c2)ccc1O [Curcumin]
[3]
  activity: 95% and 100%

## O=Nc1ccc2oc(=O)ccc2c1 [NOBP]
[1]
  mean cleavage (%): 63%

## O=C1C(SCCO)=C(SCCO)C(=O)c2ccccc21 [NSC95397]
VERO E6 cells
  concentration that sacrificed VERO E6 cells: above 10 μM
SARS-CoV-2; MOI 0.5 PFU/cell, 22 h post-infection, titration at lower concentrations
  SARS-CoV-2 viral growth in VERO E6 cells: viral growth was not inhibited
SARS-CoV-2; VERO E6 cells, NSC95397 titration in the presence of 0.5 µM remdesivir
  additive effect with remdesivir on SARS-CoV-2 infectivity: did not observe any additive effect
[4]
  effect on nuclease cleavage by benzonase: did not affect nuclease cleavage
RNase A
  effect on nuclease cleavage by RNase A: did not affect nuclease cleavage
[1]
  effect on nsp15 endoribonuclease activity in gel-based assay: inhibited nsp15 endoribonuclease
  mean cleavage (%): 9%
[2]
  Hill slope: -2.5
  IC50: 43 µM
  inhibition of nsp15 endoribonuclease activity in plate reader: able to inhibit nsp15 endoribonuclease activity

## CCCNS(=O)(=O)Nc1ncnc(OCCOc2ncc(Br)cn2)c1-c1ccc(Br)cc1 [Macitentan]
[1]
  mean cleavage (%): 64%

## Cn1cnc2nc(NCCO)nc(NCc3ccccc3)c21 [Iso-Olomoucine]
[1]
  mean cleavage (%): 60%

## C=C(C)[C@@H]1CC[C@]2(C(=O)O)CC[C@]3(C)[C@H](CC[C@@H]4[C@@]5(C)CC[C@H](O)C(C)(C)[C@@H]5CC[C@]43C)[C@@H]12 [Betulinic acid]
[1]
  mean cleavage (%): 51%

## Oc1cc2c(cc1O)C(c1ccccc1)CNCC2 (stereo not drawn) [SKF 38393 hydrobromide]
[3]
  activity: 65%
[1]
  mean cleavage (%): 62%

## CC#C[C@]1(O)CC[C@H]2[C@@H]3CCC4=CC(=O)CCC4=C3[C@@H](c3ccc(N(C)C)cc3)C[C@@]21C [Mifepristone]
[3]
  activity: 85%
[1]
  mean cleavage (%): 63%

## C[C@H]1CC[C@@]2(OC1)O[C@H]1C[C@H]3[C@@H]4CC[C@@H]5C[C@@H](O)CC[C@]5(C)[C@H]4CC[C@]3(C)[C@H]1[C@@H]2C [Sarsasapogenin]
[3]
  activity: 100% and 96%

## CN1C[C@H](C(=O)N[C@]2(C)O[C@@]3(O)[C@@H]4CCCN4C(=O)[C@H](Cc4ccccc4)N3C2=O)C=C2c3cccc4[nH]cc(c34)C[C@H]21 [Ergotamine]
[3]
  activity: 99% and 100%

## CC(COc1ccccc1)N(CCCl)Cc1ccccc1 (stereo not drawn) [Phenoxybenzamine]
[3]
  activity: 37%
[1]
  mean cleavage (%): 58%

## Cl.Cl.NCCC(=O)NCCc1cnc[nH]1 [Carcinine dihydrochloride]
[1]
  mean cleavage (%): 76%

## O=c1cc(-c2ccccc2)oc2cc(O)c(O)c(O)c12 [Baicalein]
[3]
  activity: 80%
[1]
  mean cleavage (%): 64%

## Cc1ncc([N+](=O)[O-])n1CC(O)CCl (stereo not drawn) [Ornidazole]
[3]
  activity: 66%
[1]
  mean cleavage (%): 62%
